The test has as its system Staphylococcus aureus. In words: Tested for antibacterial activity against Staphylococcus aureus by disc-diffusion antibacterial assay; Inactive. It counts as functional, organism-based. (In general: Agar diffusion results depend on both activity and mobility in agar.)

Active and inactive are the calls of the source. The rule behind the calls is not given here.

Take `C[C@@H](O)[C@H]1C(=O)N2[C@@H](C(=O)O)C(SCCN)=C[C@H]12`: the inhibition entry was “inactive”.

The values above are taken from ChEMBL document CHEMBL1121842, “Preparation and antibacterial activity of delta 1-thienamycin” (1981).
